Source: patent US20220204539A1, “CD73 INHIBITORS” (BioArdis LLC, priority 2019, published 2022)

Experiments:
[1] = biological target: T1, Recombinant Human 5′-Nucleotidase (CD73) (Homo sapiens, UniProt P21589); experiment: CD73 Enzyme Assay; assay type: biochemical; conditions: human CD73 0.5 nM, AMP 30 μM, PiColorLock phosphate detection; read-out: Potency (IC50, CD73 enzyme assay)
T1 construct: CHO derived CD73 (Trp27-Lys547), with a C-terminal 6-His tag; 6-His (C); purchased R&D 5795-EN; host or cells: CHO
T1 sequence (P21589 27-547): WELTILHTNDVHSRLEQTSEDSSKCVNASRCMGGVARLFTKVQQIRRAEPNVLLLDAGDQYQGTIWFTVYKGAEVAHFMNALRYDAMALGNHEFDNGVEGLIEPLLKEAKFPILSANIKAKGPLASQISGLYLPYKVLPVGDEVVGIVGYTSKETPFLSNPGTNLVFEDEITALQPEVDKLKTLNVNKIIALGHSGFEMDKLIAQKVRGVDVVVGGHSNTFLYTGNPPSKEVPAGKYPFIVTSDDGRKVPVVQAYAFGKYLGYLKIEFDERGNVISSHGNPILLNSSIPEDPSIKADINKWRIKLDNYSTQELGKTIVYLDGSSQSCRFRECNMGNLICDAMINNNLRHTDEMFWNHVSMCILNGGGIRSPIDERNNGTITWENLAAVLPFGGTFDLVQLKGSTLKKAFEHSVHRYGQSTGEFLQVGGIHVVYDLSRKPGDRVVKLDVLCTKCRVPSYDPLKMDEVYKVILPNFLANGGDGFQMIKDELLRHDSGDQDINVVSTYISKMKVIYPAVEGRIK
Outline: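 Human CD73 (CHO-derived Trp27-Lys547, His-tagged; 0.5 nM final) was preincubated with compound for 15 min at 25° C. in Tris pH 7.5 buffer with MgCl2. It then reacted with 30 μM AMP for 20 min at 37° C., and released phosphate was read by malachite green absorbance at 635 nm. IC50 came from four-parameter fits against enzyme and no-enzyme controls.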

[2] = biological target: T2, Cell surface CD73 of U87 MG human glioblastoma cells (Homo sapiens, UniProt P21589); experiment: CD73 Cellular Assay; assay type: cell-based; conditions: 5000 cells per well, 30 μM AMP substrate, read-out: Potency (IC50, CD73 cellular assay)
T2 construct: Cell surface CD73 catalyzes the conversion of adenosine monophosphate (AMP) to adenosine and inorganic phosphate; endogenous in cells; host or cells: U87 MG human glioblastoma cells
T2 sequence (P21589 27-549): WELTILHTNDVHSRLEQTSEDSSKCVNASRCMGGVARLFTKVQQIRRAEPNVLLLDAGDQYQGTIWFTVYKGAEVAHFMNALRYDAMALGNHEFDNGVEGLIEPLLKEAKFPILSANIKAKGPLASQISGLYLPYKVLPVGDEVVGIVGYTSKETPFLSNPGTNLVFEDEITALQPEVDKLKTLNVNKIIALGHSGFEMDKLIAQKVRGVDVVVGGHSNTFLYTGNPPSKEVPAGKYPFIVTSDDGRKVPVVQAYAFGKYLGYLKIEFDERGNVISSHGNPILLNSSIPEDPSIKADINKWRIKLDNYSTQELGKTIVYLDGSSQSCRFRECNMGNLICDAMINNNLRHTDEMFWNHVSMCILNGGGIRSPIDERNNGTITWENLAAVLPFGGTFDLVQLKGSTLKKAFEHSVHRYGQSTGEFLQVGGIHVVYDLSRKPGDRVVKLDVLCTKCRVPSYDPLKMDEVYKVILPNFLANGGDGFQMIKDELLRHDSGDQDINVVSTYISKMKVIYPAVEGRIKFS
Description: Cell surface CD73 catalyzes the conversion of adenosine monophosphate (AMP) to adenosine and inorganic phosphate. U87 MG human glioblastoma cells express high level of CD73. Cells are treated with compounds in a 96-well assay plate and supernatants are collected into a 384-well detection plate. The concentration of inorganic phosphate (Pi) in the supernatants is determined using the phosphate detection reagent, PiColorLock™ (Innova Bioscience, Cat #303-0125) following the manufacturer's instructions.
Briefly, on the day of the assay, U87 MG cells were harvested and resuspended in assay buffer which consisted of 20 mM HEPES, pH=7.4, 137 mM NaCl, 5.4 mM KCl, 1.3 mM CaCl2, 4.2 mM NaHCO3 and 0.1% glucose. To test the effect of compounds on cellular CD73 enzymatic activity, 500 nL/well of compounds dissolved in DMSO were added to a 96-well TC-treated microplate (Corning #3599). Next, 80 μL/well of U87 MG cells in assay buffer were added to assay plate. After 30 minutes of incubation in an atmosphere of 5% CO2 at 37° C., 20 μL/well of 150 μM AMP (Adenosine 5′-monophosphate monohydrate, Sigma, Cat #01930) in assay buffer was added to assay plate. Final assay conditions consisted of 5000 cells per well in 0.5% DMSO and 30 μM AMP substrate. After 50 minutes of incubation in an atmosphere of 5% CO2 at 37° C., 50 μL/well of supernatant was transferred to the 384-well detection plate (Corning® NBS™ 384 well plates, Cat #3640). Meanwhile “Gold mix” was prepared shortly before use by adding 1/100 volume of accelerator to the PiColorLock™ Gold reagent. 12 μL/well of the “Gold mix” was added to detection plate containing 50 μL/well of supernatant and incubated at 25° C. for 5 minutes. 5 μL/well stabilizer was added to the detection plate and incubated at 25° C. for 30 minutes. The absorbance at 635 nm was measured on a Spark 10M instrument (TECAN). The percent (%) inhibition at each concentration of a compound was calculated relative to the OD value in the Max and Min control wells contained within each assay plate. The Max control wells contained cells and substrate as 0% inhibition, and the Min control wells only contained cells as 100% inhibition. The concentrations and percent inhibition values for a test compound are plotted and the concentration of a the compound required to achieve 50% inhibition (IC50) was determined with a four-parameter logistic dose response equation.

Compound | IC50 [1] [nM] | IC50 [2] [nM]
CO[C@H]1CC[C@H](Nc2nc(Cl)nn3c([C@@H]4O[C@H](COP(=O)(O)CP(=O)(O)O)[C@@H](O)[C@H]4O)cnc23)CC1 [Compound 17, (((((2R,3S,4R,1S)-5-(2-chloro-4-(((1r,4S)-4-methoxycyclohexyl)amino)imidazo[2,1-f][1,2,4]triazin-7-yl)-3,4-dihydroxytetrahydrofuran-2-yl)methoxy)(hydroxy)phosphoryl)methyl)phosphonic acid] | < 10 | < 1
O=P(O)(O)CP(=O)(O)OC[C@H]1O[C@@H](c2cnc3c(N4CCc5ccccc54)nc(Cl)nn23)[C@H](O)[C@@H]1O [Compound 18, (((((2R,3S,4R,1S)-5-(2-chloro-4-(indolin-1-yl)imidazo[2,1-f][1,2,4]triazin-7-yl)-3,4-dihydroxytetrahydrofuran-2-yl)methoxy)(hydroxy)phosphoryl)methyl)phosphonic Acid] | < 10 | 1 to 9.9
O=P(O)(O)CP(=O)(O)OC[C@H]1O[C@@H](c2cnc3c(N4CCc5ccccc5C4)nc(Cl)nn23)[C@H](O)[C@@H]1O [Compound 19, (((((2R,3S,4R,1S)-5-(2-chloro-4-(3,4-dihydroisoquinolin-2(1H)-yl)imidazo[2,1-f][1,2,4]triazin-7-yl)-3,4-dihydroxytetrahydrofuran-2-yl)methoxy)(hydroxy)phosphoryl)methyl)phosphonic Acid] | < 10 | < 1
O=P(O)(O)CP(=O)(O)OC[C@H]1O[C@@H](c2cnc3c(NC4CCCCC4)nc(Cl)nn23)[C@H](O)[C@@H]1O [Compound 20, (((((2R,3S,4R,1S)-5-(2-chloro-4-(cyclohexylamino)imidazo[2,1-f][1,2,4]triazin-7-yl)-3,4-dihydroxytetrahydrofuran-2-yl)methoxy)(hydroxy)phosphoryl)methyl)phosphonic Acid] | < 10 | < 1
O=P(O)(O)CP(=O)(O)OC[C@H]1O[C@@H](c2cnc3c(N[C@H]4CCOC4)nc(Cl)nn23)[C@H](O)[C@@H]1O [Compound 21, [({[(2R,3S,4R,5S)-5-{2-chloro-4-[(3S)-oxolan-3-ylamino]imidazo[2,1-f][1,2,4]triazin-7-yl}-3,4-dihydroxyoxolan-2-yl]methoxy}(hydroxy)phosphoryl)methyl]phosphonic Acid] | < 10 | < 1
O=P(O)(O)CP(=O)(O)OC[C@H]1O[C@@H](c2cnc3c(N[C@@H]4CCOC4)nc(Cl)nn23)[C@H](O)[C@@H]1O [Compound 22, (((((2R,3S,4R,1S)-5-(2-chloro-4-(((R)-tetrahydrofuran-3-yl)amino)imidazo[2,1-f][1,2,4]triazin-7-yl)-3,4-dihydroxytetrahydrofuran-2-yl)methoxy)(hydroxy)phosphoryl)methyl)phosphonic Acid] | < 10 | < 1
COC1CCC(Nc2nc(Cl)nn3c([C@@H]4O[C@H](COP(=O)(O)CP(=O)(O)O)[C@@H](O)[C@H]4O)cnc23)C1 (stereo partly drawn) [Compound 23, (((((2R,3S,4R,1S)-5-(2-chloro-4-((3-methoxycyclopentyl)amino)imidazo[2,1-f][1,2,4]triazin-7-yl)-3,4-dihydroxytetrahydrofuran-2-yl)methoxy)(hydroxy)phosphoryl)methyl)phosphonic acid] | < 10 | < 1
O=P(O)(O)CP(=O)(O)OC[C@H]1O[C@@H](c2cnc3c(N4Cc5ccccc5C4)nc(Cl)nn23)[C@H](O)[C@@H]1O [Compound 24, [({[(2R,3S,4R,5S)-5-[2-chloro-4-(1,3-dihydroisoindol-2-yl)imidazo[2,1-f][1,2,4]triazin-7-yl]-3,4-dihydroxyoxolan-2-yl]methoxy}(hydroxy)phosphoryl)methyl]phosphonic acid] | < 10 | < 1
CO[C@H]1CC[C@@H](Nc2nc(Cl)nn3c([C@@H]4O[C@H](COP(=O)(O)CP(=O)(O)O)[C@@H](O)[C@H]4O)cnc23)CC1 [Compound 27, (((((2R,3S,4R,1S)-5-(2-chloro-4-(((1s,4R)-4-methoxycyclohexyl)amino)imidazo[2,1-f][1,2,4]triazin-7-yl)-3,4-dihydroxytetrahydrofuran-2-yl)methoxy)(hydroxy)phosphoryl)methyl)phosphonic Acid] | < 10 | < 1
O=P(O)(O)CP(=O)(O)OC[C@H]1O[C@@H](c2cnc3c(N[C@@H]4CCc5ccccc54)nc(Cl)nn23)[C@H](O)[C@@H]1O [Compound 28, (((((2R,3S,4R,1S)-5-(2-chloro-4-(((R)-2,3-dihydro-1H-inden-1-yl)amino)imidazo[2,1-f][1,2,4]triazin-7-yl)-3,4-dihydroxytetrahydrofuran-2-yl)methoxy)(hydroxy)phosphoryl)methyl)phosphonic Acid] | < 10 | < 1
CN(c1nc(Cl)nn2c([C@@H]3O[C@H](COP(=O)(O)CP(=O)(O)O)[C@@H](O)[C@H]3O)cnc12)C1CCc2ccccc21 (stereo partly drawn) [Compound 29, (((((2R,3S,4R,1S)-5-(2-chloro-4-(((R)-2,3-dihydro-1H-inden-1-yl)(methyl)amino)imidazo[2,1-f][1,2,4]triazin-7-yl)-3,4-dihydroxytetrahydrofuran-2-yl)methoxy)(hydroxy)phosphoryl)methyl)phosphonic Acid] | < 10 | < 1
CN(c1nc(Cl)nn2c([C@@H]3O[C@H](COP(=O)(O)CP(=O)(O)O)[C@@H](O)[C@H]3O)cnc12)[C@H]1CCc2ccccc21 [Compound 30, (((((2R,3S,4R,1S)-5-(2-chloro-4-(((S)-2,3-dihydro-1H-inden-1-yl)(methyl)amino)imidazo[2,1-f][1,2,4]triazin-7-yl)-3,4-dihydroxytetrahydrofuran-2-yl)methoxy)(hydroxy)phosphoryl)methyl)phosphonic Acid] | < 10 | < 1
C[C@H](Nc1nc(Cl)nn2c([C@@H]3O[C@H](COP(=O)(O)CP(=O)(O)O)[C@@H](O)[C@H]3O)cnc12)c1ccccc1F [Compound 32, (((((2R,3S,4R,1S)-5-(2-chloro-4-(((S)-1-(2-fluorophenyl)ethyl)amino)imidazo[2,1-f][1,2,4]triazin-7-yl)-3,4-dihydroxytetrahydrofuran-2-yl)methoxy)(hydroxy)phosphoryl)-methyl)phosphonic Acid] | < 10 | < 1
